{"source": "patent US10471076B2", "about": "“Compositions and methods to treat vision disorders” (YouHealth Biotech, Limited, priority 2014, dated 2019)", "key": {"[1]": {"tested_on": "cataract-causing mutant crystallins", "experiment": "Western blot of soluble and insoluble fractions of cell lysates", "format": "cell-based", "conditions": "human lens progenitor cells, n=3, P<0.001", "source_text": "The cells were harvested and lysed. Supernatant and insoluble fractions were separated by centrifugation and analyzed by western blot analysis. LSS and crystallin fusion proteins were identified by antibodies against Flag and GFP tags, respectively. The lanosterol-treated group is highlighted by red boxes. Cells treated with 1% DMSO were used as a control. β-Actin was used as an internal protein loading control of total cell lysates (TCL). S, supernatant; P, insoluble fraction. […] Crystallin aggregates were formed by incubating 5 mg ml^−1 protein solution at 60° C. for 2 h (α-crystallins) or 37° C. for 48 h (β- and γ-crystallins) in the presence of 1 M guanidine chloride. The preformed aggregates were re-suspended in PBS at a final protein concentration of 0.2 mg ml^−1 and were treated with 500 μM sterols in 500 μM DPPC liposome and incubated at 37° C. for 24 h. […] Aggregates treated with 500 μM DPPC liposome only were used as the controls.\nLC-MS analysis. […] The derived samples were analyzed by an Agilent 1290/6460 triple quadrupole LC/MS using an alternative Atmospheric Pressure Chemical Ionisation (APCI) source. […] Quantification of the western blot bands was achieved using the software GELPRO (Media Cybernetics). The presented quantitative data were calculated from three independent experiments."}, "dog eyes with cataracts": {"tested_on": "dog eyes with cataracts", "experiment": "Treatment of cataractous lenses in dogs in vivo", "design": "key to cataract grade before treatment, treatment group / cataract grade after treatment, treatment group: Grade 0: absence of opacification (no cataract); Grade 1: a slight degree of opacification (incipient stage); Grade 2: presence of diffuse opacification involving almost the entire lens (immature stage); Grade 3: presence of extensive, thick opacification involving the entire lens (mature stage)", "protocol": "Preparation of drug-loaded nanoparticles. Lanosterol was loaded into a lipid-polymer hybrid nanoparticle through an adapted nanoprecipitation method^34. In brief, the desired concentration of lanosterol was mixed with polycaprolactone (PCL) polymer dissolved in acetonitrile. Lecithin and 1,2-distearoyl-sn-glycero-3-phosphoethanolamine-N-carboxy(polyethylene glycol) 2000 (DSPE-PEG-COOH) were dissolved in a 4% ethanol aqueous solution at 20% of the PCL polymer weight and heated above 60° C. The lanosterol/PCL solution was then added into the preheated lipid solution under gentle stirring followed by rigorous vortexing for 3 min. The mixture solution was then stirred for 2 h to allow the nanoparticles to form and the acetonitrile to evaporate. Next, the nanoparticle solution was washed three times using an Amicon Ultra-4 centrifugal filter (Millipore) with a molecular weight cut-off of 10 kDa to remove the remaining organic solvent and free molecules. The resulting nanoparticles were then re-suspended in PBS buffer for sub-sequent use. The size, size distribution, and surface zeta potential of the drug-loaded nanoparticles were characterized by dynamic light scattering. The loading yield of lanosterol was quantified by high-performance liquid chromatography.\nTreatment of cataractous lenses in dogs. To assess the effect of lanosterol treatment on cataracts in live animals, dogs were pre-medicated with intramuscular injections of acepromaxine and butorphanol. After 20 min, induction of anaesthesia was performed by application of intravenous propofol. Dogs were then immediately intubated and maintained on oxygen and 2% isoflurane at […]. Lanosterol (100 mg)-loaded nanoparticles were initially injected into the vitreous cavity in the test eye using a 28-gauge needle, and then were given every 3 days for the duration of the experiment. Treatment eyes or sham eyes were randomized. […] Degree of cataract severity was assessed by a blinded examiner and scored based on canine cataract stage, shown below^35. Improvements in lens clarity and transparency were quantified. […]"}}, "note": "Several values for one entry are separate records, joined by “and”; a condition that tells them apart may be missing. Equal entries are not always repeated. Entries after “also recorded” stand apart in the source; their conditions may differ.", "data": [{"smiles": "CC(C)=CCC[C@@H](C)[C@H]1CC[C@@]2(C)C3=C(CC[C@]12C)[C@@]1(C)CC[C@H](O)C(C)(C)[C@@H]1CC3", "note": "[lanosterol, 3β-Hydroxy-8,24-lanostadiene; 8,24-Lanostadien-3β-ol]", "values": [{"measurement": "amount of mutant crystallins in the soluble fractions of cell lysates", "setting": "[1]", "value": "increased the amounts of mutant crystallins in the soluble fractions; also recorded: increased cataract-causing mutant crystallins in soluble fractions"}, {"measurement": "cataract grade before treatment, treatment group", "setting": "dog eyes with cataracts; dog study eye, baseline, n=7", "value": "1 and 2 and 3"}, {"measurement": "cataract grade after treatment, treatment group", "setting": "dog eyes with cataracts; dog study eye, intravitreal lanosterol (100 mg)-loaded nanoparticles every 3 days plus 25 mM lanosterol eye drops three times daily, 6 weeks, n=7", "value": "0 and 1"}, {"measurement": "cataract severity / lens clarity", "setting": "dog eyes with cataracts; dogs in vivo, 6 weeks of lanosterol, P<0.009, Wilcoxon Test", "value": "significantly reduced cataract severity and increased lens clarity"}]}]}
